System: human peripheral blood mononuclear cells (PBMCs)
Experiment: IFN-α secretion by human PBMC (ELISA)
Type: cell-based
Conditions: for EC50: human PBMCs from healthy donors, IFN-α in supernatant by ELISA; for EC50 / IFN-α Max: 24 hours incubation; for IFN-α Max / maximum IFN-α levels induced, as compared to C69-10 and C69-11: human PBMCs; for IFN-α Max: ELISA, limit of maximal/minimal detection 13160/102 pg/ml; for maximum IFN-α levels induced, as compared to C69-10 and C69-11: 24 hours, result in words
Method: The activity of a candidate TLR9 agonist may be assessed in vitro by measuring interferon-alpha secretion by human peripheral blood mononuclear cells (PBMC) with an enzyme linked immunosorbent assay (ELISA). In particular, human PBMC are contacted with a series of graded doses of the candidate TLR9 agonist (and controls) for a period of about 24 hours. The EC50 value (in nM) and a max production level (in pg/mL) are then determined from a dose-response curve.
Activity of oligonucleotides (PN) was assessed in vitro by measurement of cytokine secretion by human peripheral blood mononuclear cells (PBMCs).
PBMCs were isolated from blood of healthy human donors using Ficoll-Paque. For IFN-α induction, duplicate cultures of PBMCs were incubated for 24 hours with increasing concentrations of oligonucleotides. IFN-α levels in cell culture supernatants were measured by ELISA (PBL Biomedical Laboratories, Piscataway, N.J.). The limit of maximal/minimal detection was 13160/102 pg/ml.

| Substance | EC50 [µM] | IFN-α Max [pg/mL] | maximum IFN-α levels induced, as compared to C69-10 and C69-11 |
| --- | --- | --- | --- |
| C69-01: 5′-TCG AACGTTCGAACGTTCGAA CGTTCGAAT-3′ (SEQ ID NO: 4), CpG-C 2′-deoxyribopolynucleotide, phosphorothioate backbone (DNA TCGAACGTTCGAACGTTCGAACGTTCGAAT; DNA, all phosphorothioate, methylation of C not given here) | 0.061 | 6030 | Higher maximum IFN-α levels |
| C69-02: 5′-TCG AACGTTCGAACGTTCGAA CGTT-3′ (SEQ ID NO: 5), phosphorothioate backbone (DNA TCGAACGTTCGAACGTTCGAACGTT; DNA, all phosphorothioate, methylation of C not given here) | 0.049 | 6008 | Higher maximum IFN-α levels |
| C69-10: 5′-TTCG AACGTTCGAACGTTCGAAT-3′ (SEQ ID NO: 23), phosphorothioate backbone (DNA TTCGAACGTTCGAACGTTCGAAT; DNA, all phosphorothioate, methylation of C not given here) | 0.058 | 3820 |  |
| C69-11: 5′-TTTTCG AACGTTCGAACGTTCGAAATT-3′ (SEQ ID NO: 24), phosphorothioate backbone (DNA TTTTCGAACGTTCGAACGTTCGAAATT; DNA, all phosphorothioate, methylation of C not given here) | 0.065 | 1239 |  |

From patent US20210315991A1, “COMBINATION INCLUDING A CPG-C TYPE OLIGONUCLEOTIDE AND A PD-1 ANTAGONIST FOR TREATING BREAST CANCER” (Surefire Medical, Inc. d/b/a TriSalus Life Sciences, priority 2018, published 2021)
